The subject of data set [1] is KAIMRC1 cells. The data set can be described thus: CellTiter-Glo assay, KAIMRC1. It is filed as cell-based. To be noted: Homo sapiens, 24 h, read-out: IC50 Breast Cancer KAIMRC1. On the procedure:
To validate the anti-proliferative activity of the imidazole derivatives, the compounds were tested against several cancer cell lines, which included breast cancer (MDA-MB-231, KAIMRC1, and KAIMRC2), colorectal cancer (HCT8), and acute promyelocytic leukemia cells (HL60). KAIMRC1 was isolated from a person with stage II-B breast cancer and is ER+/PR+ and HER2-. In comparison, KAIMRC2 was isolated from a person with metastasized breast cancer and is a triple-negative (ER-/PR-, and HER2-) tumor cell line.
The CellTiter-Glo assay (Promega™, Madison, WI, USA) was used to evaluate imidazole and oxazolone derivatives cytotoxicity against various cancer cell lines; MCF-10A, HL60, MDA-MB-231, and HCT8, purchased from ATCC, USA, except KAIMRC1 and KAIMRC2, which were isolated, established, and characterized in the core laboratory facility KAIMRC, Riyadh, Saudi Arabia. The cells were seeded in white 96-well plates at a density of 5 × 10^3 cells/well in a 100 μL of growth medium with various concentrations of each compound ranging from 0 to 250 µM. Cells were incubated at 37 °C for 24 h. Plates were equilibrated at RT for 30 min. A quantity of 100 µL of CellTiter-Glo reagent was added to each well and mixed for 2 min on an orbital shaker. Plates were incubated for 10 min at RT before measuring the luminescence using an Envision plate reader (Perkin Elmer). Half-maximal inhibitory concentration IC50 values (μM) were calculated for each imidazole derivative from the dose–response curve. The cytotoxic effect at a concentration <10 µM was considered strongly active and from 11 to 100 µM was considered moderately active, whereas above 100 µM was deemed non-active. Mitoxantrone was utilized as a positive control. Experiments were performed in triplicates.

Data set [2] deals with HCT8 cells. The data set can be described thus: MTT assay, HCT8. The data set is classed as cell-based. To be noted: Homo sapiens, HCT-8, 24 h, 0 to 250 μM, read-out: IC50 Colorectal Cancer (HCT8). As to the method:
To establish the cytotoxic effect of the nitrogenous derivatives, cells were treated with various concentrations of the drugs ranging from 0 to 250 μM. Following a 24 h incubation period, cell viability was assessed using the MTT assay. Mitoxantrone served as a positive control to evaluate growth inhibition. Since heterogeneity is a hallmark of cancer, the study included cell lines with diverse genomic and proteomic profiles. […] In this regard, further optimization would be required to increase the selective therapeutic potential of compound 9. To determine whether the anti-proliferative effect of the nitrogen derivatives could be translated to other malignancies, we tested the cytotoxic effect on the HCT8 (colorectal cancer) cell line. HCT8 is an adenocarcinoma driven by the Kirsten Rat Sarcoma (KRAS) mutation, unlike MCF-10A [28].
The MTT assay was utilized to examine the imidazole derivatives’ anti-proliferative activity against MCF-10A, MDA-MB-231, and HCT8 cell lines, purchased from ATCC, USA [47]. Firstly, 5 × 10^3 cells/well were seeded in a 96-well plate in 100 μL of growth medium and were subsequently cultured overnight with various concentrations of each compound ranging from 0 to 250 µM [48]. The media was aspirated, and 50 µL of serum-free media and 50 µL of MTT solution were added to each well. Next, cells were incubated at 37 °C for 3 h, then 150 µL of MTT solvent was added into each well. After that, plates were wrapped in foil and agitated for 15 min on an orbital shaker. Finally, the absorbance was measured within 1 h at OD590 nm. Half-maximal inhibitory concentration IC50 values (μM) were calculated for each compound from the dose–response curve. Experiments were performed in triplicates.
Background: Tetrazolium dyes change colour on reduction, which living cells bring about.

For data set [3], the system named is HL60 cells. Nature of the data set: High-content imaging (HCI) cell health / apoptosis assay. The data set is classed as cell-based, human. To be noted: for viability at 31.25 µM / viability at 62.5 µM / viability at 125 µM: Homo sapiens, HL-60, HCI Cell Health, read-out: HL60 Cell Line % Cell Viability; for viability at 31.25 µM / viability at 62.5 µM / viability at 125 µM / apoptosis in HL60 cells (HCI): 48 h; for apoptosis in HL60 cells (HCI): increasing concentrations 31.25-125 µM, compared with control. On the procedure: Figure 5A depicts a dose-dependent increase in cell shrinkage/condensing, and necrotic cells are also visible. […] Furthermore, even at the lowest concentration, 31.25 µM, compound 9 was more efficacious than compound 8 since there appeared to be fewer healthy cells (blue and green staining) and a greater level of shrinkage. Moreover, Figure 5B depicts the HCI Cell Health determined by means of digital analysis, displaying the HL60 percentage cell viability as a function of increasing drug concentrations.
Figure 5 HCI-based apoptosis assay. (A) HL60 cells were treated with three concentrations (31.25 µM, 62.5 µM, and 125 µM) of compounds # 8 (a–c), # 9 (d–f), and PBS for the negative control (g) for 48 h. The nucleus (blue) was stained with HOECHST 33342, the cytoplasm (Green) was stained with Calcein AM, and dead cells (Red) were stained with Propidium Iodide (PI). […] (B) HCI Cell Health Digital Analysis MetaXpress software generated the graph quantifying the cell viability, seen in B, as a percentage of HL60 cells treated with the compounds. […] TEXT PRINTED IN THE PICTURE: (B) Compound # 8: HL60 Cell Line % Cell Viability: 64.5 (125μM); HL60 Cell Line % Cell Viability: 87.4 (62.5μM); HL60 Cell Line % Cell Viability: 94.6 (31.25μM) | (B) Compound # 9: HL60 Cell Line % Cell Viability: 45.7 (125μM); HL60 Cell Line % Cell Viability: 56.9 (62.5μM); HL60 Cell Line % Cell Viability: 79.9 (31.25μM) | (B) Control: HL60 Cell Line % Cell Viability: 98.5
HL60 cells were seeded in a 96-well plate at a density of 20,000 cells per well. The cells were treated with compounds 8 and 9 and negative control (PBS) for 48 h. Three graded concentrations were used for the treatment, 31.25 µM, 62.5 µM, and 125 µM. After the treatment, the cells were stained with Calcein AM (2 µg/mL), HOECHST33342 (2.5 µg/mL), and Propidium Iodide (2.5 µg/mL) for 45 min at 37 °C and 5% CO2. Plates were imaged on a Molecular Devices ImageXpress® Microsystem, and the acquired image data were analyzed using MetaXpress® software, Molecular Devices, Downingtown, PA, USA. The Cell Health module available in the MetaXpress software was used to measure the percentage viability of live and dead cells. Experiments were performed in triplicates.

For the molecule `O=C1/C(=C/c2ccccc2)N=C(c2ccccc2)N1Nc1ccc([N+](=O)[O-])cc1[N+](=O)[O-]` [Compound 8], in data set [1], the IC50 (commonly the concentration needed to halve the response being measured) was found to be 10.2 µM. The IC50 in data set [2] was determined as 29.5 µM. In addition, in data set [3], the viability (commonly a per cent measure of how many cells are alive, often set against a control) at 31.25 µM worked out at 94.6%; the viability at 62.5 µM turned out to be 87.4%; the viability at 125 µM turned out to be 64.5%; the “apoptosis in HL60 cells (HCI)” value was “led to apoptosis”.
With `COc1cccc(/C=C2\N=C(c3ccccc3)N(Nc3ccc([N+](=O)[O-])cc3[N+](=O)[O-])C2=O)c1` [Compound 9], the IC50 in data set [1] was found to be 22.2 µM. Further, the IC50 in data set [2] is 13.2 µM. In addition, in data set [3] (31.25 µM, HL60, 48 h), the cytotoxic efficacy entry is on record as “approximately 20%”. Moreover, the cytotoxicity result in data set [3] (62.5 µM, HL60, 48 h) is reported as “approximately 54%”. In data set [3], the viability at 31.25 µM was found to be 79.9%, the viability at 62.5 µM was 56.9%, the viability at 125 µM was 45.7% and the “apoptosis in HL60 cells (HCI)” value is listed as “led to apoptosis”.

Source of the values: paper PMC9029529, “Distinct Mechanisms of Cytotoxicity in Novel Nitrogenous Heterocycles: Future Directions for a New Anti-Cancer Agent” (Molecules, 2022).
